Reference: US5559101A, “L-ribofuranosyl nucleosides” (priority 1994, dated 1996)
≈ marks a conversion by molar mass, not a printed value. Where two headings read alike, the source gives them in different places.

Columns and labels:
HT29 (colon) = assay: Radiometric growth inhibition of tumor cells, HT29; format: cell-based, human; parameters: % SURVIVAL TUMOR: concentration or dose not given beside the values; settings: for IC50: concentration required to kill 50%
Description: (§1) CELL LINES: Eight different established human cell lines CALU (lung), COLO320 (colon), H578St (breast), HT-29 (colon), MCF-7 (breast), OM-1 (colon), SKLU (lung) and SKMES(lung), and two control cell lines (bone marrow and/or fibroblast cells) were utilized. All cell lines were obtained from the Tumor Cloning Laboratory, Institute for Drug Development, Cancer Therapy and Research Center, San Antonio, Tex. All cell lines grew as monolayers in the appropriate culture medium supplemented with heat-inactivated calf serum. All reagents were obtained from Grand Island Biological Co., Grand Island, N.Y.
(§2) The iv formulations of the compounds of the present invention were prepared with sterile buffered saline and stored at -70° C. until required for testing.
(§3) Following trypsinization, tumor cells were suspended in tissue culture medium and exposed to the antitumor agents continuously at three different concentrations: 10, 1 and 0.1 μg/ml.
(§4) RADIOMETRIC MEASUREMENT OF GROWTH INHIBITION: Growth inhibition was assessed with the BACTEC System 460 (Johnston Laboratories, Towson, Md.) after addition of the antitumor agent to the cell in the respective growth medium containing ^14 C-glucose at a final concentration of 2 μCi/ml.
(§5) Two mls of the tumor cell suspension containing radioactive glucose were seeded into sterile, disposable 15 ml vials by injection through self-sealing rubber-aluminum caps. […] The seeded vials were then incubated at 37° C. Measurement of the release of ^14 CO2 resulting from the metabolism of ^14 C-glucose were performed on days 6, 9, 12 and 15 in the BACTEC instrument. This instrument flushes the ^14 CO2 containing air out of the vials into an ionization chamber that converts dpm to growth index values. […] Each data point represents triplicate values.
(§6) All compounds were dosed on an equimilimolar basis.

MCF-7 (breast) = assay: Radiometric growth inhibition of tumor cells, MCF-7; format: cell-based, human; parameters: % SURVIVAL TUMOR: concentration or dose not given beside the values; settings: MCF-7; for IC50: concentration required to kill 50%; for % SURVIVAL TUMOR: continuous exposure
Description: as §1, §2, §3, §4, §5, §6

OM-1 (colon) = assay: Radiometric growth inhibition of tumor cells, OM-1; format: cell-based, human; parameters: % SURVIVAL TUMOR: concentration or dose not given beside the values; settings: for IC50: concentration required to kill 50%
Description: as §1, §2, §3, §4, §5, §6

SKLU (lung) = assay: Radiometric growth inhibition of tumor cells, SKLU; format: cell-based, human; parameters: % SURVIVAL TUMOR: concentration or dose not given beside the values; settings: for IC50: concentration required to kill 50%
Description: as §1, §2, §3, §4, §5, §6

[1] = In vitro survival of bone marrow control cells (radiometric BACTEC); format: cell-based; parameters: concentration or dose not given beside the values
Description: as §1, §2, §3, §4, §5, §6

CALU (lung) = assay: Radiometric growth inhibition of tumor cells, CALU; format: cell-based, human; parameters: % SURVIVAL TUMOR: concentration or dose not given beside the values; settings: for IC50: Homo sapiens, concentration required to kill 50%, read-out: IC 50
Description: as §1, §2, §3, §4, §5, §6

COLO320 (colon) = assay: Radiometric growth inhibition of tumor cells, COLO320; format: cell-based, human; settings: for IC50: Homo sapiens, COLO 320, COLO320, concentration required to kill 50%, read-out: IC 50; for % SURVIVAL TUMOR: human, colo320 colon tumor cells
Description: as §1, §2, §3, §4, §5, §6

[2] = bone marrow control cells, continuous exposure, read-out: % SURVIVAL BONE MARROW
[3] = Homo sapiens, HT-29, HT29, read-out: IC 50
[4] = Homo sapiens, MCF7, read-out: IC 50
[5] = Homo sapiens, OM-1, read-out: IC 50
[6] = Homo sapiens, SKLU, read-out: IC 50

## 2'-Deoxy-β-L-5-fluorouridine
HT29 (colon); HT29
  IC50: 85.2
MCF-7 (breast)
  IC50: 16.6
OM-1 (colon); OM-1
  IC50: 62.9
SKLU (lung); SKLU
  IC50: 32.5

## O=C(OC[C@@H]1O[C@@H](n2ccc(=S)[nH]c2=O)[C@@H](OC(=O)c2ccccc2)[C@H]1OC(=O)c1ccccc1)c1ccccc1 [1-(2,3,5-Tri-O-benzoyl-α-L-ribofuranosyl)-4-thiouracil]
[1]; [2]
  viability: 85.9%
HT29 (colon); HT29, continuous exposure
  % SURVIVAL TUMOR: 75%
HT29 (colon); [3]
  IC50: > 10 µg/mL

## O=c1ccn([C@@H]2CC[C@H](CO)O2)c(=O)[nH]1 [2',3'-β-L-dideoxy ribofuranosyl uracil, 2',3'-Dideoxy-β-L-uridine]
[1]; bone marrow cells
  viability: 79.8%
CALU (lung); CALU, continuous exposure
  % SURVIVAL TUMOR: 0.4%
CALU (lung); CALU
  IC50: 0.623 µg/mL (≈ 2.94 µM)

## O=c1[nH]c(=O)n([C@@H]2C[C@@H](O)[C@H](CO)O2)cc1F [2'-Deoxy-β-L-5-fluorouridine]
[1]; bone marrow cells
  viability: 109%
COLO320 (colon)
  IC50: 6.56 µg/mL (≈ 26.6 µM)
  % SURVIVAL TUMOR: 19.6%
HT29 (colon); HT29, continuous exposure
  % SURVIVAL TUMOR: 42.5%
HT29 (colon); [3]
  IC50: 8.46 µg/mL (≈ 34.4 µM)
MCF-7 (breast); [4]
  IC50: 60.7 µg/mL (≈ 247 µM)
MCF-7 (breast)
  % SURVIVAL TUMOR: 86.9%
OM-1 (colon); [5]
  IC50: 56.1 µg/mL (≈ 228 µM)
OM-1 (colon); human, om-1 colon tumor cells
  % SURVIVAL TUMOR: 85.2%
SKLU (lung); [6]
  IC50: 59.9 µg/mL (≈ 243 µM)
SKLU (lung); human, sklu lung tumor cells
  % SURVIVAL TUMOR: 86.2%

## Nc1ncnc2c1ncn2[C@@H]1C[C@@H](O)[C@H](CO)O1 [2'-β-L-deoxy ribofuranosyl adenine]
[1]; bone marrow cells
  viability: 64.9%
CALU (lung); CALU
  IC50: 0.696 µg/mL (≈ 2.77 µM)
CALU (lung); human, calu lung tumor cells
  % SURVIVAL TUMOR: 28.9%

## O=c1[nH]cnc2c1ncn2[C@@H]1C[C@@H](O)[C@H](CO)O1 [2'-β-L-deoxy ribofuranosyl hypoxanthine, 2'-Deoxy-β-L-inosine]
[1]; bone marrow cells
  viability: 110%
OM-1 (colon); [5]
  IC50: > 10 µg/mL
OM-1 (colon); human, om-1 colon tumor cells
  % SURVIVAL TUMOR: 83.1%

## Cc1cn([C@@H]2C[C@@H](O)[C@H](CO)O2)c(=O)[nH]c1=O [2'-β-L-deoxy ribofuranosyl thymine, 2'-Deoxy-β-L-thymidine]
[1]; bone marrow cells
  viability: 159%
COLO320 (colon)
  IC50: 57.4 µg/mL (≈ 237 µM)
  % SURVIVAL TUMOR: 67.0%
HT29 (colon); [3]
  IC50: 30.4 µg/mL (≈ 126 µM)
HT29 (colon); human, ht29 colon tumor cells
  % SURVIVAL TUMOR: 72.2%
OM-1 (colon); [5]
  IC50: 6.5 µg/mL (≈ 26.8 µM)
OM-1 (colon); human, om-1 colon tumor cells
  % SURVIVAL TUMOR: 37.6%
SKLU (lung); [6]
  IC50: 38.2 µg/mL (≈ 158 µM)
SKLU (lung); human, sklu lung tumor cells
  % SURVIVAL TUMOR: 72.4%

## O=c1[nH]c(=S)ccn1[C@@H]1C[C@@H](O)[C@H](CO)O1 [2'-β-L-deoxy ribofuranosyl-4-thiouracil, 2'-Deoxy-β-L-4-thiouridine]
[1]; [2]
  viability: 98.2%
OM-1 (colon); [5]
  IC50: 34.3 µg/mL (≈ 140 µM)
OM-1 (colon); OM-1, continuous exposure
  % SURVIVAL TUMOR: 82.3%
SKLU (lung); [6]
  IC50: > 10 µg/mL
SKLU (lung); SKLU, continuous exposure
  % SURVIVAL TUMOR: 79.4%

## NC1=N[C@@H]2O[C@@H](CO)[C@H](O)[C@@H]2O1 [2-Amino-α-L-ribofurano[1',2':4,5]oxazoline]
[1]; [2]
  viability: 115%
OM-1 (colon); [5]
  IC50: 0.026 µg/mL (≈ 0.149 µM)
OM-1 (colon); OM-1, continuous exposure
  % SURVIVAL TUMOR: 2.6%

## NC1=N[C@H]2O[C@@H](CO)[C@H](O)[C@H]2O1 [2-Amino-β-L-arabinofurano[1',2':4,5]oxazoline]
[1]; [2]
  viability: 110%
CALU (lung); CALU, continuous exposure
  % SURVIVAL TUMOR: 89%
CALU (lung); CALU
  IC50: 44.6 µg/mL (≈ 256 µM)
MCF-7 (breast); [4]
  IC50: 187 µg/mL (≈ 1070 µM)
MCF-7 (breast)
  % SURVIVAL TUMOR: 88.8%
OM-1 (colon); [5]
  IC50: 5 µg/mL (≈ 28.7 µM)
OM-1 (colon); OM-1, continuous exposure
  % SURVIVAL TUMOR: 41.3%

## O=C(OC[C@@H]1O[C@H](n2ccc(=S)[nH]c2=O)C[C@H]1OC(=O)c1ccccc1)c1ccccc1 [3',5'-Di-O-benzoyl-2'deoxy-4-thio β-L-uridine]
[1]; [2]
  viability: 102%
MCF-7 (breast); [4]
  IC50: > 10 µg/mL
MCF-7 (breast)
  % SURVIVAL TUMOR: 84.5%
OM-1 (colon); [5]
  IC50: 0.98 µg/mL (≈ 2.17 µM)
OM-1 (colon); OM-1, continuous exposure
  % SURVIVAL TUMOR: 35.7%
SKLU (lung); [6]
  IC50: 88.7 µg/mL (≈ 196 µM)
SKLU (lung); SKLU, continuous exposure
  % SURVIVAL TUMOR: 77.7%
